Literature values as cited in patent US5093338A, “Lipophilic macrolide useful as an immunosuppressant” (Merck & Co., Inc., priority 1991, dated 1992).

Experiments:
[1] = tested on: antibody production; details: rats
[2] = tested on: heterotopic heart allografts
[3] = rats given heterotopic heart allografts
[4] = tested on: adjuvant-induced arthritis; details: rats
[5] = tested on: allergic encephalomyelitis; details: rats
[6] = tested on: transplantation; details: combination with Cyclosporin A; heart, kidney, bowel, pancreas or other transplantation

Structure (SMILES): CO[C@H]1C[C@@H]2CC[C@@H](C)[C@@](O)(O2)C(=O)C(=O)N2CCCC[C@H]2C(=O)O[C@H]([C@H](C)C[C@@H]2CC[C@@H](O)[C@H](OC)C2)CC(=O)[C@H](C)/C=C(\C)[C@@H](O)[C@@H](OC)C(=O)[C@H](C)C[C@H](C)/C=C/C=C/C=C/1C [rapamycin]
- inhibiting antibody production [1]: inhibiting the response to allergic encephalomyelitis,adjuvant-induced arthritis and antibody production
- immunosuppressive in rats given heterotopic heart allografts [2]: immunosuppressive
- toxicity compared with that anticipated with FK-506 [3]: less toxicity was experienced than would be anticipated with FK-506
- inhibiting the response to adjuvant-induced arthritis [4]: inhibiting the response to allergic encephalomyelitis,adjuvant-induced arthritis
- inhibiting the response to allergic encephalomyelitis [5]: inhibiting the response to allergic encephalomyelitis
- amount of Cyclosporin A required for immunosuppressive effect in combination [6]: reducing the amount of Cyclosporin A required
